Here are results for 18 compounds from patent US20250223307A1, “MDM2/MDMX DOUBLE-TARGET INHIBITOR COMPOUND, PRODRUG, PHARMACEUTICAL COMPOSITION, AND PREPARATION METHOD THEREFOR AND USE THEREOF” (GLOBAL HEALTH DRUG DISCOVERY INSTITUTE, priority 2022, published 2025).

Test [1] has as its system Blood cancer cells RS4; 11. The test can be described thus: CellTiter Glo test: growth inhibition of cells. The format is cell-based. The settings on record: Homo sapiens, 11 cells, 72 h, cell viability. On the procedure:
Test of Candidate Compounds on Growth Inhibition of Cells Determined by CellTiter Glo
Blood cancer cells RS4; 11 were inoculated into the 96-well cell culture plate through Multidrop 3000 cells per well, with a volume of 100 μL. The final compound concentration ranged from 50 μM to 0.01 μM at 9 concentration gradients and the DMSO final concentration was 0.1%. The cells and compounds were co-incubated in a cell incubator at 37° C. for 72 h, a CellTiter-Glo Luminescent Cell Viability Assay reagent was added 100 μL/well, the cells and compound were uniformly mixed and incubated at room temperature for 10 min, and Envision reading was performed. A sample treated with 50 μM of a positive compound was taken as a positive control and a sample treated with 100 nL of DMSO was taken as a negative control.

The target in the next test is MDM2 (Homo sapiens, UniProt Q00987). Nature of the test: HTRF test: inhibition of MDM2-p53 protein binding. On the technique in general: TR-FRET usually uses a lanthanide donor and a delayed reading to cut background.
Another test deals with T1, MDMX (Homo sapiens, UniProt O15151).
T1 sequence (O15151 2-134): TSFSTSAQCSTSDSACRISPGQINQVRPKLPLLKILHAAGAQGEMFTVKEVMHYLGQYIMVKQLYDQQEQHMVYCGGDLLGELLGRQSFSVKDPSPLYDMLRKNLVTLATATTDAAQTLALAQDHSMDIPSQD
The test can be described thus: HTRF test: inhibition of MDMX-p53 protein binding.

Structures are written as SMILES. A value given as a limit tells only on which side of the number the result lay.

Sequence of MDM2 (Q00987 2-138): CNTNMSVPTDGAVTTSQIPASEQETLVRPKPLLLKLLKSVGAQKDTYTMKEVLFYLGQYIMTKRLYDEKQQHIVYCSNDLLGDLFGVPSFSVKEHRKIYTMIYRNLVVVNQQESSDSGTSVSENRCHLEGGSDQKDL

Usually IC50 stands for the midpoint of a concentration-inhibition curve. Consider `C#Cc1ccc(CN2C(=O)N/C(=C\c3c[nH]c4c(F)c(Cl)ccc34)C2=O)cc1` [Compound 17, (Z)-5-((6-chloro-7-fluoro-1H-indol-3-yl)methylene)-3-(4-acetenylbenzyl)imidazolidine-2,4-dione], for which the IC50 in test [1] was ≤ 1000 nM; on MDM2, 10 to 100 nM; on MDMX, 10 to 100 nM.
With `O=C(NC(CO)CO)C(c1ccc(F)c(F)c1)N1C(=O)N/C(=C\c2c[nH]c3cc(Cl)ccc23)C1=O` (stereo not drawn) [Compound 24, (Z)-2-(4-((6-chloro-1H-indol-3-yl)methylene)-2,5-dioxoimidazolidin-1-yl)-2-(3,4-difluorophenyl)-N-(1,3-dihydroxypropan-2-yl)acetamide], the half-maximal inhibitory concentration (IC50) lay within 1000 to 10000 nM in test [1], 10 to 100 nM on MDM2 and 10 to 100 nM at MDMX.
As to `O=C1N/C(=C\c2c[nH]c3c(F)c(Cl)ccc23)C(=O)N1C(CO)c1ccc(Cl)cc1` (stereo not drawn) [Compound 69, (Z)-5-((6-chloro-7-fluoro-1H-indol-3-yl)methylene)-3-(1-(4-chlorophenyl)-2-hydroxyethyl)imidazolidine-2,4-dione], the results for the IC50 (in test [1]; at MDM2; on MDMX) were ≤ 1000 nM, 10 to 100 nM and 10 to 100 nM, respectively.
`Cc1c(Cl)ccc2c(/C=C3\NC(=O)N([C@@H](CO)c4ccc(C#N)cc4)C3=O)c[nH]c12` [Compound 96, (R,Z)-4-(1-(4-((6-chloro-7-methyl-1H-indol-3-yl)methylene)-2,5-dioxoimidazolidin-1-yl)-2-hydroxyethyl)benzonitrile]: the figures for the IC50 (in test [1]; at MDM2; on MDMX) were ≤ 1000 nM, < 10 nM and < 10 nM, respectively.
For the compound `O=C1N/C(=C\c2c[nH]c3c(F)c(Cl)ccc23)C(=O)N1C(CO)c1cc(F)c(Cl)c(F)c1` (stereo not drawn) [Compound 107, (Z)-3-(1-(4-chloro-3,5-difluorophenyl)-2-hydroxyethyl)-5-((6-chloro-7-fluoro-1H-indol-3-yl)methylene)imidazolidine-2,4-dione], the 50% inhibitory concentration (IC50) in test [1] is ≤ 1000 nM; at MDM2, 10 to 100 nM; at MDMX, 10 to 100 nM.
Turning to `CSc1c(Cl)ccc2c(/C=C3\NC(=O)N(Cc4ccc(F)c(F)c4)C3=O)c[nH]c12` [Compound 9], the IC50 in test [1] was > 10000 nM; at MDM2 it was 10 to 100 nM; on MDMX, 10 to 100 nM.
Consider `O=C1N/C(=C\c2c[nH]c3c(F)c(Cl)ccc23)C(=O)N1Cc1ccc(F)c(F)c1` [Compound 10, (Z)-5-((6-chloro-7-fluoro-1H-indol-3-yl)methylene)-3-(3,4-difluorobenzyl)imidazolidine-2,4-dione], for which the values for the IC50 (in test [1]; on MDM2; at MDMX) were 1000 to 10000 nM, 10 to 100 nM and 10 to 100 nM, respectively.
As for `N#Cc1ccc(C(C=O)N2C(=O)N/C(=C\c3c[nH]c4c(F)c(Cl)ccc34)C2=O)cc1F` (stereo not drawn) [Compound 33, (Z)-4-(1-(4-((6-chloro-7-fluoro-1H-indol-3-yl)methylene)-2,5-dioxoimidazolidin-1-yl)-2-oxyethyl)-2-fluorobenzonitrile], the concentration for half-maximal inhibition (IC50) in test [1] fell in the range of 1000 to 10000 nM; at MDM2, 10 to 100 nM; at MDMX, 10 to 100 nM.
On to `O=C(NCCO)C(c1ccc(F)c(F)c1)N1C(=O)N/C(=C\c2c[nH]c3c(F)c(Cl)ccc23)C1=O` (stereo not drawn) [Compound 72, (Z)-2-(4-((6-chloro-7-fluoro-1H-indol-3-yl)methylene)-2,5-dioxoimidazolidin-1-yl)-2-(3,4-difluorophenyl)-N-(2-hydroxyethyl)acetamide], for which the figures for the IC50 (in test [1]; on MDM2; at MDMX) were ≤ 1000 nM, < 10 nM and < 10 nM, respectively.
On to `N#Cc1ccc(CN2C(=O)N/C(=C\c3c[nH]c4c(OCF)c(Cl)ccc34)C2=O)cc1` [Compound 13, (Z)-4-((4-((6-chloro-7-(fluoromethoxyl)-1H-indol-3-yl)methylene)-2,5-dioxoimidazolidin-1-yl)methyl)benzonitrile], for which the figures for the IC50 (in test [1]; at MDM2; at MDMX) were > 10000 nM, < 10 nM and 10 to 100 nM, respectively.
On the same counts, the results for `Cc1c(Cl)ccc2c(/C=C3\NC(=O)N(C(CO)c4ccc(Cl)cc4)C3=O)c[nH]c12` (stereo not drawn) [Compound 70, (Z)-5-((6-chloro-7-methyl-1H-indol-3-yl)methylene)-3-(1-(4-chlorophenyl)-2-hydroxyethyl)imidazolidine-2,4-dione] are ≤ 1000 nM, 10 to 100 nM and 10 to 100 nM.
On the same counts, the results for `O=C1N/C(=C\c2c[nH]c3c(F)c(Cl)ccc23)C(=O)N1Cc1ccc(Cl)cc1F` [Compound 98, (Z)-3-(4-chloro-2-fluorobenzyl)-5-((6-chloro-7-fluoro-1H-indol-3-yl)methylene)imidazolidine-2,4-dione] are ≤ 1000 nM, 10 to 100 nM and > 100 nM.
The matching figures for `Cc1c(Cl)ccc2c(/C=C3\NC(=O)N(C(C(=O)NC(CO)CO)c4ccc(C#N)cc4)C3=O)c[nH]c12` (stereo not drawn) [Compound 32, (Z)-2-(4-((6-chloro-7-methyl-1H-indol-3-yl)methylene)-2,5-dioxoimidazolidin-1-yl)-2-(4-cyanophenyl)-N-(1,3-dihydroxypropan-2-yl)acetamide]: 1000 to 10000 nM, < 10 nM and < 10 nM.
As to `N#Cc1ccc(C(C(=O)NC(CO)CO)N2C(=O)N/C(=C\c3c[nH]c4c(F)c(Cl)ccc34)C2=O)cc1` (stereo not drawn) [Compound 29, (Z)-2-(4-((6-chloro-7-fluoro-1H-indol-3-yl)methylene)-2,5-dioxoimidazolidin-1-yl)-2-(4-cyanophenyl)-N-(1,3-dihydroxypropan-2-yl)acetamide], the half-maximal inhibitory concentration (IC50) in test [1] is 1000 to 10000 nM; at MDM2, < 10 nM; on MDMX, < 10 nM.
`O=C1N/C(=C\c2c[nH]c3c(F)c(Cl)ccc23)C(=O)N1Cc1c(F)cc(Cl)cc1F` [Compound 102, (Z)-3-(4-chloro-2,6-difluorobenzyl)-5-((6-chloro-7-fluoro-1H-indol-3-yl)methylene)imidazolidine-2,4-dione]: the figures for the IC50 (in test [1]; at MDM2; at MDMX) were ≤ 1000 nM, 10 to 100 nM and 10 to 100 nM, respectively.
As for `O=C1N/C(=C\c2c[nH]c3c(F)c(Cl)ccc23)C(=O)N1C(CO)c1cc(F)c(Cl)cc1F` (stereo not drawn) [Compound 101, (Z)-3-(1-(4-chloro-2,5-difluorophenyl)-2-hydroxyethyl)-5-((6-chloro-7-fluoro-1H-indol-3-yl)methylene)imidazolidine-2,4-dione], the IC50 is 1000 to 10000 nM in test [1], 10 to 100 nM on MDM2 and > 100 nM at MDMX.
The matching figures for `O=C1N/C(=C\c2c[nH]c3c(F)c(Cl)ccc23)C(=O)N1C(CO)c1ccc(Cl)cc1F` (stereo not drawn) [Compound 99, (Z)-3-(1-(4-chloro-2-fluorophenyl)-2-hydroxyethyl)-5-((6-chloro-7-fluoro-1H-indol-3-yl)methylene)imidazolidine-2,4-dione]: ≤ 1000 nM, 10 to 100 nM and 10 to 100 nM.
Turning to `O=C1N/C(=C\c2c[nH]c3c(F)c(Cl)ccc23)C(=O)N1C(CO)c1c(F)cc(Cl)cc1F` (stereo not drawn) [Compound 103, (Z)-3-(1-(4-chloro-2,6-difluorophenyl)-2-hydroxyethyl)-5-((6-chloro-7-fluoro-1H-indol-3-yl)methylene)imidazolidine-2,4-dione], the concentration for half-maximal inhibition (IC50) was 1000 to 10000 nM in test [1], < 10 nM at MDM2 and > 100 nM at MDMX.
